Each structure is given as a SMILES string.

IC50 and EC50 data for 3 compounds are collected here from US12605369B2, “Amido-substituted heterocyclic compounds and methods of use thereof for the treatment of herpes viruses” (Merck Sharp & Dohme LLC, priority 2019, dated 2026).

Assay [1] addresses T1, Human cytomegalovirus DNA polymerase (Human cytomegalovirus, UniProt P08546).
T1 construct: made in house; host or cells: SF21 insect cells (baculovirus vector)
Kind of assay: CMV polymerase assay (AlphaLISA, Example 15). Format: biochemical. The settings on record: HCMV polymerase 0.2 nM; 30 min pre-incubation; 60 min at 37° C. Here is the method:
(§1) CMV and VZW Polymerase Assays
(§2) Human cytomegalovirus and varicella zoster virus DNA polymerases were expressed via baculovirus vector in SF21 cells and purified. Heterodimeric nucleic acid substrate used in the herpesvirus polymerase reactions were generated by annealing a 59-mer template to a 17-mer digoxigenin-labeled primer. Polymerase (HCMV final concentration of 0.2 nM; VZV final concentration of 0.4 nM) was combined with an inhibitor compound or DMSO in assay buffer (10 mM HEPES, pH 7.5, 25 mM KCl, 25 mM NaCl, 5 mM MgCl2, 5% glycerol, 0.67 mg/ml bovine serum albumin, and 1 mM tris(2-carboxyethyl)phosphine)), and this mixture was pre-incubated for 30 minutes at room temperature in 384-well microtiter plates. The polymerization reaction was initiated by the addition of template/primer substrate (final concentration: 1.6 nM) and dNTPs (final concentration: 24 nM dCTP, 24 nMdGTP, 16 nM dATP, 16 nM dTTP, and 0.8 nM biotin-dUTP). After a 60 minute incubation period at 37° C., the reactions were terminated using quench buffer (25 mM HEPES pH 7.5, 100 mM NaCl, 0.25% Tween-20, 12 mM EDTA, and 1 mg/ml bovine serum albumin). Incorporation of biotinylated UTP was detected with 2.5-5 μg/mL anti-DIG AlphaLISA acceptor beads and 5-10 μg/mL streptavidin AlphaLISA donor beads (PerkinElmer). Compound effects were normalized to the window defined by the controls (DMSO only and pre-quenched wells) and were fit using a 4-parameter algorithm to report an IC50.
A general note: In Alpha technology, singlet oxygen from a donor bead excites a nearby acceptor bead.

Another assay concerns HSV-2 Strain G. Kind of assay: Viral qPCR assay, HSV-2 (Example 14). Format: cell-based. The settings on record: Human alphaherpesvirus 2, Vero, 72 h, Strain G in Vero or MRCS cells, 0.004-0.4 pfu/cell, viral genome copy number by qPCR, read-out: HSV2 Cell EC50. Here is the method: (§3) MRCS and Vero cells were obtained from ATCC and were maintained at 37° C./5% CO2/90% relative humidity in Minimal Essential Medium with 10% fetal bovine serum, […], 100 units/mL penicillin and 100 ug/mL streptomycin. Assay plates were prepared by dispensing compounds dissolved in DMSO into wells of 384 well collagen-coated plates using an ECHO acoustic dispenser. Each test compound was tested in a 10-point, serial 3-fold dilution. Controls included uninfected cells and infected cells treated only with DMSO. Assays were initiated by mixing selected cells, in suspension, with virus, and dispensing 50 μl/well infected cells to pre-plated compounds. Plates were incubated at 37° C./5% CO2/90% relative humidity for ˜72 hours to permit genomic replication, and infected cells were lysed by the addition of an equal volume of lysis buffer (10 mM Tris-HCl, pH8, 50 mM KCl, 2 mM MgCl2, 0.45% NP-40, 0.45% Tween-20, and 100 μg/mL proteinase K). An aliquot of the lysate was then transferred to a 384-well PCR plate and incubated at 56° C. for 1 hour, and then at 95° C. for 10 minutes. Levels of a viral gene were measured in 10 ul qPCR assays using TaqMan® Gene Expression Master Mix (Applied Biosystems) and an 7900HT Fast Real-Time PCR System with 384-Well Block Module. 7-point, serial 10-fold dilutions of a plasmid standard were run on each plate to generate a standard curve, and genome copies numbers were calculated by plotting experimental Ct onto linear regression of the standard curve. Compound effects on viral genome copy number were normalized to the window defined by the controls. Calculated % effects were fit using a 4-parameter algorithm, and EC50 was reported. • HCMV: Strain AD169 was assayed in MRC-5 cells and was used at 0.05-0.1 pfu/cell. The assays were performed in either growth media or in the same media with 50% fetal bovine serum. Primer-probe set was Thermo Fisher Assay ID=AIFATFK. • HSV-1: Strain F was assayed in Vero or MRCS cells and was used at 0.0005-0.004 pfu/cell in growth medium. Primer-probe set was Thermo Fisher Assay ID=AIBJZIB. • HSV-2: Strain G was assayed in Vero or MRCS cells and was used at 0.004-0.4 pfu/cell in growth medium. Primer-probe set was Thermo Fisher Assay ID=AICSXOJ.
(In general: In qPCR the cycle at which signal appears reflects the starting amount.)

For a further assay, the system named is HSV-1 Strain F. Kind of assay: Viral qPCR assay, HSV-1 (Example 14). As to conditions: Human alphaherpesvirus 1, Vero, 72 h, Strain F in Vero or MRCS cells, 0.0005-0.004 pfu/cell, viral genome copy number by qPCR, read-out: HSV1 Cell EC50. The format is cell-based. On the procedure:
as §3

For assay [2], the target named is T2, varicella zoster virus DNA polymerase (Varicella-zoster virus, UniProt P09252).
T2 construct: made in house; host or cells: SF21 insect cells (baculovirus vector)
Kind of assay: VZV polymerase assay (AlphaLISA, Example 15). Format: biochemical. As to conditions: VZV polymerase 0.4 nM; 30 min pre-incubation; 60 min at 37° C. On the procedure:
as §1, §2

A further assay relates to HCMV Strain AD169. Kind of assay: Viral qPCR assay, HCMV (Example 14). The format is cell-based. The settings on record: Human betaherpesvirus 5, AD169, MRC5, 72 h, Strain AD169 in MRC-5 cells, 0.05-0.1 pfu/cell, ~72 hours, viral genome copy number by qPCR; growth media or 50% fetal bovine serum; read-out: CMV Cell EC50. On the procedure: as §3

T1 sequence (P08546 whole entry): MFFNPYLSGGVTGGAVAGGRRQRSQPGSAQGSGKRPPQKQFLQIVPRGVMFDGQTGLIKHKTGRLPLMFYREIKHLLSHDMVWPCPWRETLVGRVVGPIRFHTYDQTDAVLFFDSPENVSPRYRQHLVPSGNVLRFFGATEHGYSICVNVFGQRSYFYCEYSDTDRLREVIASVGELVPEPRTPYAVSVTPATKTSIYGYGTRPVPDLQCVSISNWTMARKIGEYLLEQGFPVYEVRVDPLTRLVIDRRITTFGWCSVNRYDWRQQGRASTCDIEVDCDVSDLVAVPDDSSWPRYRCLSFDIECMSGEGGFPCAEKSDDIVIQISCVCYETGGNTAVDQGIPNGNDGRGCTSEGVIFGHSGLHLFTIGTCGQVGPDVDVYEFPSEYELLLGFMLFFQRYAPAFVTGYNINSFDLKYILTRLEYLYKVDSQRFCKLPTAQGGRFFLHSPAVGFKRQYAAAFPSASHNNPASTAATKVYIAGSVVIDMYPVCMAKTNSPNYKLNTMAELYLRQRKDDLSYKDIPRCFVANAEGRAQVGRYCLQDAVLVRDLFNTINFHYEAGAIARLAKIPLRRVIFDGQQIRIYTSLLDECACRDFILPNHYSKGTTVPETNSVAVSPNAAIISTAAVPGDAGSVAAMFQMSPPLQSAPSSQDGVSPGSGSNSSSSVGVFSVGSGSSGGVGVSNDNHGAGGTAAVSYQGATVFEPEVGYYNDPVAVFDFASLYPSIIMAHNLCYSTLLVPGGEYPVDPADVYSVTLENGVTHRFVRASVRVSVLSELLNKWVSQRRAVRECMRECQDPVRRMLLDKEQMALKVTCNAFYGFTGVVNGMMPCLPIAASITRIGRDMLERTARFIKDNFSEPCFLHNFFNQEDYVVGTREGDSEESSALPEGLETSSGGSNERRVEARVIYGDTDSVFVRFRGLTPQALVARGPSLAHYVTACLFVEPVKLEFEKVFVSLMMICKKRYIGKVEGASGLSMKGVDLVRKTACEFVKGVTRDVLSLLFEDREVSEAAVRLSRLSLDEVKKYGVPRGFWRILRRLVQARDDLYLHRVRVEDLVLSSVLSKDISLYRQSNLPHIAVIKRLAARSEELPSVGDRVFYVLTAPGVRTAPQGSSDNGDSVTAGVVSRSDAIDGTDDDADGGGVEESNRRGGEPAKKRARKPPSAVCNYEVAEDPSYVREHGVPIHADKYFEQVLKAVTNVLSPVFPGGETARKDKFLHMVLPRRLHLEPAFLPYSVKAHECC
T2 sequence (P09252 whole entry): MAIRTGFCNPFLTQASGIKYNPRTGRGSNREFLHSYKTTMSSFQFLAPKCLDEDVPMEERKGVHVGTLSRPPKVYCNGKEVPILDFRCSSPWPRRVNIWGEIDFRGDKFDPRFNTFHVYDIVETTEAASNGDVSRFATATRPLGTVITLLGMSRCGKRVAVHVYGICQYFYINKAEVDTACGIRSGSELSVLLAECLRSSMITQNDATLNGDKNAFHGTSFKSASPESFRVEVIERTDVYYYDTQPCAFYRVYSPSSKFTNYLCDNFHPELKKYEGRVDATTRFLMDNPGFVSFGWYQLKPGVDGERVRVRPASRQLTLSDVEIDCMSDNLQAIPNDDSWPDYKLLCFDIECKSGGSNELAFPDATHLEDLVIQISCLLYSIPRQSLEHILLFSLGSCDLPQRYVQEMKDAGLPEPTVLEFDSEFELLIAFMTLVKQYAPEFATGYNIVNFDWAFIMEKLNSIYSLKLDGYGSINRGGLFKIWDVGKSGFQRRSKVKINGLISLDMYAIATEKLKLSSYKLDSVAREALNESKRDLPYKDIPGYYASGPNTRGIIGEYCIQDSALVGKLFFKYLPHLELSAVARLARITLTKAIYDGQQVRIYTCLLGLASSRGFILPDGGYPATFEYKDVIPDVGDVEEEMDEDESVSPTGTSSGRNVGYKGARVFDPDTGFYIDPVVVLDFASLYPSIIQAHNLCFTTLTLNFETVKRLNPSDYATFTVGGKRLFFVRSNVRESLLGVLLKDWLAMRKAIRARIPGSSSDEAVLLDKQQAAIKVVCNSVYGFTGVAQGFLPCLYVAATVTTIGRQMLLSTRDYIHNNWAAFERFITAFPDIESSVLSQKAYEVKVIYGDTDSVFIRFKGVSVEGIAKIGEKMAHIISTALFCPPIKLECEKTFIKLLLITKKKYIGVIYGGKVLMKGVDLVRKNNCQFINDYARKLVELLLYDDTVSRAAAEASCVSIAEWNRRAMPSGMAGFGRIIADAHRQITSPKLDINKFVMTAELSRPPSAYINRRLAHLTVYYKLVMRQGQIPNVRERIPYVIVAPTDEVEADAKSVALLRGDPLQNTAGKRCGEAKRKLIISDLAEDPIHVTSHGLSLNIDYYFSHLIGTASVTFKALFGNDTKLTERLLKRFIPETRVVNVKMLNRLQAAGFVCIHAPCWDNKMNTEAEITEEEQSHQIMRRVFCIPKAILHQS

Regarding `COc1nc(NC(=O)C2CCc3cc(C#N)ccc32)ccc1C[C@H]1COC(=O)N1` (stereo partly drawn) [Compound 19], the half-maximal inhibitory concentration (IC50) in assay [1] stood at 0.01 µM; in assay [2], 0.007 µM. The values for the EC50 in the assay with HSV-2 Strain G, in the assay with HSV-1 Strain F and in the assay on HCMV Strain AD169 were 0.259 µM, 0.311 µM and 0.475 µM, respectively.

`COc1nc(NC(=O)Cc2ccc(C#N)cc2F)ccc1C[C@H]1COC(=O)N1` [Compound 15]: the half-inhibitory concentration (IC50) in assay [1] amounted to 0.0075 µM; in assay [2], 0.008 µM. For the same compound, the figures for the EC50 in the assay on HSV-2 Strain G, in the assay with HSV-1 Strain F and in the assay with HCMV Strain AD169 were 0.523 µM, 0.453 µM and 0.083 µM, respectively.

Consider `COCc1cc(C#N)ccc1CC(=O)Nc1ccc(C[C@H]2COC(=O)N2)c(OC)n1` [Compound 6], for which the IC50 in assay [1] is 0.009 µM; in assay [2], 0.008 µM. Further, the half-maximal effective concentration (EC50) in the assay with HSV-2 Strain G was found to be 0.198 µM; in the assay with HSV-1 Strain F it was 0.152 µM; with HCMV Strain AD169, 0.036 µM.

The term IC50 denotes the concentration at which inhibition is half-maximal. Broadly, the EC50 is the concentration that produces a half-maximal response.
